{"source": "ChEMBL document CHEMBL1255311", "about": "“Evaluation of a 2-pyridone, KRQ-10018, against Mycobacterium tuberculosis in vitro and in vivo” (Antimicrob Agents Chemother, 2008)", "key": {"[1]": {"tested_on": "Staphylococcus aureus", "experiment": "Antimicrobial activity against Staphylococcus aureus ATCC 29213 by broth macrodilution method", "assay_type": "functional"}, "[2]": {"tested_on": "Mycobacterium tuberculosis", "experiment": "Antimicrobial activity against Mycobacterium tuberculosis Erdman injected into gamma interferon gene knockout C57BL/6 mouse assessed as bacterial load in spleen of mouse at 300 mg/kg measured 9 days post drug treatment", "assay_type": "functional"}, "[3]": {"tested_on": "Mycobacterium tuberculosis", "experiment": "Antimicrobial activity against Mycobacterium tuberculosis H37Rv by macrodilution method", "assay_type": "functional"}, "[4]": {"tested_on": "Pseudomonas aeruginosa", "experiment": "Antimicrobial activity against Pseudomonas aeruginosa ATCC 27853 by broth macrodilution method", "assay_type": "functional"}, "[5]": {"tested_on": "Mycobacterium tuberculosis", "experiment": "Antimicrobial activity against Mycobacterium tuberculosis Erdman injected into gamma interferon gene knockout C57BL/6 mouse assessed as bacterial load in lung of mouse at 100 mg/kg measured 9 days post drug treatment", "assay_type": "functional"}, "[6]": {"tested_on": "Mycobacterium tuberculosis", "experiment": "Antimicrobial activity against Mycobacterium tuberculosis H37Rv by alamar blue assay", "assay_type": "functional"}, "[7]": {"tested_on": "Mycobacterium tuberculosis", "experiment": "Antimicrobial activity against Mycobacterium tuberculosis Erdman injected into gamma interferon gene knockout C57BL/6 mouse assessed as bacterial load in spleen of mouse at 100 mg/kg measured 9 days post drug treatment", "assay_type": "functional"}, "[8]": {"experiment": "Oral bioavailability in mouse at 300 mg/kg, po measured after 30 mins", "assay_type": "ADME, organism-based", "conditions": "in vivo, read-out: Drug uptake"}, "[9]": {"tested_on": "Escherichia coli", "experiment": "Antimicrobial activity against Escherichia coli ATCC 25922 by broth macrodilution method", "assay_type": "functional"}, "[10]": {"tested_on": "Mycobacterium tuberculosis", "experiment": "Antimicrobial activity against Mycobacterium tuberculosis H37Rv at assessed as growth inhibition at […] following 24 days oxygen depletion by Wayne method relative to control", "assay_type": "functional", "set-up": "scale not given: the % may be the effect or the level left"}, "[11]": {"experiment": "Oral bioavailability in mouse at 300 mg/kg, po measured after 2 hrs", "assay_type": "ADME, organism-based", "conditions": "in vivo, read-out: Drug uptake"}, "[12]": {"tested_on": "Mycobacterium tuberculosis", "experiment": "Antimicrobial activity against Mycobacterium tuberculosis Erdman injected into gamma interferon gene knockout C57BL/6 mouse assessed as bacterial load in lung of mouse at 300 mg/kg measured 9 days post drug treatment", "assay_type": "functional"}, "[13]": {"experiment": "Oral bioavailability in mouse at 25 mg/kg, po measured after 2 hrs", "assay_type": "ADME, organism-based", "conditions": "in vivo, read-out: Drug uptake"}, "[14]": {"experiment": "Oral bioavailability in mouse at 25 mg/kg, po measured after 30 mins", "assay_type": "ADME, organism-based", "conditions": "in vivo, read-out: Drug uptake"}, "[15]": {"tested_on": "Mycobacterium tuberculosis", "experiment": "Antimicrobial activity against Mycobacterium tuberculosis Erdman injected into gamma interferon gene knockout C57BL/6 mouse assessed as bacterial load in lung of mouse at 25 mg/kg measured 9 days post drug treatment", "assay_type": "functional"}, "[16]": {"tested_on": "Mycobacterium tuberculosis", "experiment": "Antimicrobial activity against Mycobacterium tuberculosis Erdman injected into gamma interferon gene knockout C57BL/6 mouse assessed as bacterial load in spleen of mouse at 25 mg/kg measured 9 days post drug treatment", "assay_type": "functional"}, "[17]": {"conditions": "Mycobacterium tuberculosis, H37Rv, read-out: MIC"}}, "data": [{"molecule": "Cc1c(N2CC3=CCCN[C@H]3C2)c(F)cn2c(=O)c(C(=O)O)cc(C3CC3)c12", "values": [{"measurement": "MIC", "setting": "[1]", "result": "< 0.015", "unit": "µg/mL"}, {"measurement": "log10cfu", "setting": "[2]", "result": 4.91}, {"measurement": "MIC", "setting": "[3]", "result": 0.041, "unit": "µg/mL"}, {"measurement": "MIC", "setting": "[4]", "result": "< 0.015", "unit": "µg/mL"}, {"measurement": "log10cfu", "setting": "[5]", "result": 7.25}, {"measurement": "MIC", "setting": "[6]; [17]", "result": "< 0.025", "unit": "µg/mL"}, {"measurement": "log10cfu", "setting": "[7]", "result": 5.92}, {"measurement": "concentration at 0.5 h", "setting": "[8]", "result": "> 13100", "unit": "ng/mL"}, {"measurement": "MIC", "setting": "[9]", "result": "< 0.015", "unit": "µg/mL"}, {"measurement": "Activity", "setting": "[10]", "result": 1.7, "unit": "%"}, {"measurement": "concentration at 2 h", "setting": "[11]", "result": 1640, "unit": "ng/mL"}, {"measurement": "log10cfu", "setting": "[12]", "result": 6.13}]}, {"molecule": "O=C(O)c1cn(C2CC2)c2cc(N3CCNCC3)c(F)cc2c1=O", "note": "[CIPROFLOXACIN]", "values": [{"measurement": "Activity", "setting": "[10]", "result": 83, "unit": "%"}]}, {"molecule": "COc1c(N2CCNC(C)C2)c(F)cc2c(=O)c(C(=O)O)cn(C3CC3)c12", "note": "(configuration not stated) [GATIFLOXACIN]", "values": [{"measurement": "Activity", "setting": "[10]", "result": 41, "unit": "%"}]}, {"molecule": "NNC(=O)c1ccncc1", "note": "[ISONIAZID]", "values": [{"measurement": "concentration at 2 h", "setting": "[13]", "result": 1640, "unit": "ng/mL"}, {"measurement": "MIC", "setting": "[6]", "result": 0.041, "unit": "µg/mL"}, {"measurement": "MIC", "setting": "[6]; [17]", "result": 0.048, "unit": "µg/mL"}, {"measurement": "concentration at 0.5 h", "setting": "[14]", "result": "> 13100", "unit": "ng/mL"}, {"measurement": "log10cfu", "setting": "[15]", "result": 5.8}, {"measurement": "log10cfu", "setting": "[16]", "result": 3.14}, {"measurement": "Activity", "setting": "[10]", "result": 70, "unit": "%"}]}, {"molecule": "Cc1ncc([N+](=O)[O-])n1CCO", "note": "[METRONIDAZOLE]", "values": [{"measurement": "Activity", "setting": "[10]", "result": 36, "unit": "%"}]}, {"molecule": "COc1c(N2C[C@@H]3CCCN[C@@H]3C2)c(F)cc2c(=O)c(C(=O)O)cn(C3CC3)c12", "note": "[MOXIFLOXACIN]", "values": [{"measurement": "log10cfu", "setting": "[2]", "result": 2.43}, {"measurement": "MIC", "setting": "[6]", "result": 0.1, "unit": "µg/mL"}, {"measurement": "MIC", "setting": "[6]; [17]", "result": 0.12, "unit": "µg/mL"}, {"measurement": "concentration at 0.5 h", "setting": "[8]", "result": 19600, "unit": "ng/mL"}, {"measurement": "Activity", "setting": "[10]", "result": 2.5, "unit": "%"}, {"measurement": "concentration at 2 h", "setting": "[11]", "result": 9600, "unit": "ng/mL"}, {"measurement": "log10cfu", "setting": "[12]", "result": 2.37}]}, {"molecule": "CO[C@H]1/C=C/O[C@@]2(C)Oc3c(C)c(O)c4c(O)c(c(/C=N/N5CCN(C)CC5)c(O)c4c3C2=O)NC(=O)/C(C)=C\\C=C\\[C@H](C)[C@H](O)[C@@H](C)[C@@H](O)[C@@H](C)[C@H](OC(C)=O)[C@@H]1C", "note": "[RIFAMPIN]", "values": [{"measurement": "Activity", "setting": "[10]", "result": 5.6, "unit": "%"}]}, {"molecule": "CO[C@H]1/C=C/O[C@@]2(C)Oc3c(C)c(O)c4c(O)c(c(/C=N/N5CCN(C6CCCC6)CC5)c(O)c4c3C2=O)NC(=O)/C(C)=C\\C=C\\[C@H](C)[C@H](O)[C@@H](C)[C@@H](O)[C@@H](C)[C@H](OC(C)=O)[C@@H]1C", "note": "[RIFAPENTINE]", "values": [{"measurement": "Activity", "setting": "[10]", "result": 2.5, "unit": "%"}]}, {"molecule": "CN[C@@H]1[C@H](O[C@H]2[C@H](O[C@H]3[C@H](O)[C@@H](O)[C@H](N=C(N)N)[C@@H](O)[C@@H]3N=C(N)N)O[C@@H](C)[C@]2(O)C=O)O[C@@H](CO)[C@H](O)[C@H]1O", "note": "[STREPTOMYCIN]", "values": [{"measurement": "Activity", "setting": "[10]", "result": 4.2, "unit": "%"}]}]}
